Earlier results as cited in patent US20240293600A1, “COMPOSITIONS, METHODS, AND DEVICES FOR SUSTAINED RELEASE OF AN AGENT” (Board of Supervisors of Louisiana State University and …, priority 2021, published 2024).

solubility in water: practically insoluble in water
SMILES: O=c1c(O)c(-c2ccc(O)c(O)c2)oc2cc(O)cc(O)c12 [Quercetin, 2-(3,4-dihydroxyphenyl)-3,5,7-trihydroxy-4H-1-benzopyran-4-one]
